Laboratory results from patent publication US20090312349A1, “ANTI-INFLAMMATORY MEDICAMENTS” (priority 2004, published 2009).

Molecular target: T1, phospho p-38 alpha kinase (Homo sapiens, UniProt Q16539)
T1 construct: purchased Panvera
Assay: P-38 alpha kinase assay (spectrophotometric, pyruvate kinase/lactate dehydrogenase coupled)
Assay type: biochemical
Conditions: Table 3; rates at […] to 2 h; read-out: IC50
Protocol: In this assay, the oxidation of NADH was continuously measured spectrophometrically. […] The reaction was initiated by adding ATP. The absorption at 340 nm was monitored continuously for up to 4 hours at 30° C. on Polarstar Optima plate reader (BMG). The kinase activity (reaction rate) was calculated from the slope at the time frame from 1.5 h to 2 h.
For inhibition determinations, test compounds were incubated with the reaction mixture for ˜5 min before adding ATP to start the reaction. […] IC50 values were calculated from a series of % inhibition values determined at a range of concentrations of each inhibitor using Prism to process the data and fit inhibition curves. Generally, the rates obtained at the time frame of 1.5 h to 2 h were used for these calculations.

T1 sequence (Q16539 whole entry): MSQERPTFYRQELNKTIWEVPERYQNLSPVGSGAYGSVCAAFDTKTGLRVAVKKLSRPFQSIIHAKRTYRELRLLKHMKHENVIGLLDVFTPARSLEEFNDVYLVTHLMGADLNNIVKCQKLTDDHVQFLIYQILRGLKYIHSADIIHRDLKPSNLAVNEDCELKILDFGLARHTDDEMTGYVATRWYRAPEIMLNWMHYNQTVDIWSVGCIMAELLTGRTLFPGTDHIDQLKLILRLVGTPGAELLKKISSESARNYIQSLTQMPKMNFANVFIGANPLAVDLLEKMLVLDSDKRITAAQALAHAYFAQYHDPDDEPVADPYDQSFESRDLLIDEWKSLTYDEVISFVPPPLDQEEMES

Row | IC50 | SMILES
1 | 0.013 µM | COc1cccc(-n2nc(C(C)(C)C)cc2NC(=O)Nc2ccc(F)cc2)c1 [Example 206, 1-(3-t-butyl-1-(3-methoxyphenyl)-1H-pyrazol-5-yl)-3-(4-fluorophenyl)urea]

Same assay, conditions: Table 5; @ 0.1 uM

Row | SMILES | % @ concentration, uM
2 | CC(C)c1cc(NC(=O)Nc2cccc3ccccc23)n(-c2cccc(C=O)c2)n1 [Example 350, 1-[1-(3-formylphenyl)-3-isopropyl-1H-pyrazol-5-yl]-3-(naphthalen-1-yl)urea] | 39%

Same assay, conditions: Table 5; @ 1 uM

Row | SMILES | % @ concentration, uM
3 | CC(C)c1cc(NC(=O)Nc2cccc3ccccc23)n(-c2cccc(C=O)c2)n1 [Example 350, 1-[1-(3-formylphenyl)-3-isopropyl-1H-pyrazol-5-yl]-3-(naphthalen-1-yl)urea] | 64%

Same assay, conditions: Table 5; @ 10 uM

Row | SMILES | % @ concentration, uM
4 | CC(C)(O)c1cccc(-n2nc(C(F)(F)F)cc2NC(=O)Nc2cccc3ccccc23)c1 [Example 337] | 8% @ 10

Same assay, conditions: Table 5; assay not named; read-out: uM

Row | SMILES | IC50
5 | CCOC(=O)c1ccc(-n2nc(C(C)(C)C)cc2NC(=O)Nc2cccc(F)c2F)cc1 [Example 314, ethyl 4-{3-t-butyl-5-[3-(2,3-difluorophenyl)ureido]-1H-pyrazol-1-yl}benzoate] | 0.25 µM
6 | CCOC(=O)C(C)Cc1cccc(-n2nc(C(C)(C)C)cc2NC(=O)Nc2cccc(Cl)c2Cl)c1 (centres unmarked) [Example 322, ethyl 3-(3-{3-t-butyl-5-[3-(2,3-dichlorophenyl)ureido]-1H-pyrazol-1-yl}phenyl)-2-methylpropanoate] | 2.02 µM
7 | C#CC(O)c1ccc(-n2nc(C(C)(C)C)cc2NC(=O)Nc2cccc3ccccc23)cc1 (centres unmarked) [Example 361, 1-{3-t-butyl-1-[4-(1-hydroxyprop-2-ynyl)phenyl]-1H-pyrazol-5-yl}-3-(naphthalen-1-yl)urea] | 0.87 µM
8 | CC(C)(C)c1cc(NC(=O)Nc2cccc3ccccc23)n(-c2cccc(CN)c2)n1 [Example 307, 1-(3-t-butyl-1-(3-(aminomethyl)phenyl)-1H-pyrazol-5-yl)-3-(naphthalen-1-yl)urea] | 0.049 µM
9 | CC(C)(C)c1cc(NC(=O)Nc2cccc(Cl)c2Cl)n(-c2ccc(C(C)(C)O)cc2)n1 [Example 364, 1-{3-t-butyl-1-[4-(2-hydroxypropan-2-yl)phenyl]-1H-pyrazol-5-yl}-3-(2,3-dichlorophenyl)urea] | 0.01 µM
10 | COc1cccc(NC(=O)Nc2cc(-c3ccccc3)nn2-c2cccc(CO)c2)c1 [Example 355, 1-{3-phenyl-1-[3-(hydroxymethyl)phenyl]-1H-pyrazol-5-yl}-3-(3-methoxyphenyl)urea] | 0.042 µM
11 | CCOC(=O)Cc1cccc(-n2nc(C(C)(C)C)cc2NC(=O)Nc2ccc(Cl)cc2)c1 [Example 320, ethyl 2-(3-{3-t-butyl-5-[3-(4-chlorophenyl)ureido]-1H-pyrazol-1-yl}phenyl)acetate] | 0.79 µM
12 | CC(C)(C)c1cc(NC(=O)Nc2cccc3ccccc23)n(-c2ccc(CO)cc2)n1 [Example 358, 1-{3-t-butyl-1-[4-(hydroxymethyl)phenyl]-1H-pyrazol-5-yl}-3-(naphthalen-1-yl)urea] | 0.1 µM
13 | CCOC(=O)Cc1cccc(-n2nc(C(C)(C)C)cc2NC(=O)Nc2cccc3ccccc23)c1 [Example 319, ethyl 2-(3-{3-t-butyl-5-[3-(naphthalen-1-yl)ureido]-1H-pyrazol-1-yl}phenyl)acetate] | 0.32 µM
14 | CC(C)(O)c1cccc(-n2nc(-c3ccccc3)cc2NC(=O)Nc2cccc3ccccc23)c1 [Example 329, 1-{1-[3-(2-hydroxypropan-2-yl)phenyl]-3-phenyl-1H-pyrazol-5-yl}-3-(naphthalen-1-yl)urea] | 0.25 µM
15 | CC(C)(C)c1cc(NC(=O)Nc2cccc(Cl)c2)n(-c2cccc(CO)c2)n1 [Example 303] | 0.089 µM
16 | CC(C)c1cc(NC(=O)Nc2ccc(Cl)cc2)n(-c2ccc(CO)cc2)n1 [Example 335, 1-(4-chlorophenyl)-3-{1-[4-(hydroxymethyl)phenyl]-3-isopropyl-1H-pyrazol-5-yl}-urea] | 0.014 µM

Next, values leading:

Row | IC50 | SMILES
17 | 0.037 µM | CC(C)(C)c1cc(NC(=O)Nc2cccc(Cl)c2Cl)n(-c2cccc(C(=O)O)c2)n1 [Example 374, 3-{3-t-butyl-5-[3-(2,3-dichlorophenyl)ureido]-1H-pyrazol-1-yl}benzoic acid]
18 | 0.056 µM | CC(C)(C)c1cc(NC(=O)Nc2ccc(F)cc2)n(-c2cccc(Cn3c(=O)[nH]n(-c4ccccc4)c3=O)c2)n1 [Example 395, 1-{3-t-butyl-1-(3-[(3,5-dioxo-1-phenyl-1,2,4-triazolidin-4-yl)methyl]phenyl}-1H-pyrazol-5-yl)-3-(4-fluorophenyl)urea]
19 | 1.46 µM | CC(C)(C)c1cc(NC(=O)Nc2cccc(Cl)c2Cl)n(-c2cccc(CO)c2)n1 [Example 372, 1-[3-t-butyl-1-(3-hydroxymethyl-phenyl)-1H-pyrazol-5-yl]-3-(2,3-dichlorophenyl)-urea]
20 | 2 µM | CC(C)(C)c1cc(NC(=O)Nc2ccc(Cl)cc2)n(-c2cccc(CN3C(=O)C(=O)NS3(=O)=O)c2)n1 [Example 380, 1-{5-t-butyl-2-[3-(1,1,3,4-tetraoxo-1λ^6-[1,2,5]thiadiazolidin-2-ylmethyl)phenyl]-2H-pyrazol-3-yl}-3-(4-chlorophenyl)urea]
21 | 0.4 µM | CCOC(=O)c1cccc(-n2nc(C(C)(C)C)cc2NC(=O)Nc2ccc(F)cc2)c1 [Example 393, ethyl 3-{3-t-butyl-5-[3-(4-fluorophenyl)ureido)-1H-pyrazol-1-yl}benzoate]
22 | 0.0134 µM | CC(C)(C)c1cc(NC(=O)Nc2cccc3ccccc23)n(-c2ccc3c(c2)CNCC3)n1 [Example 406, 1-[3-t-butyl-1-(1,2,3,4-tetrahydroisoquinolin-7-yl)-1H-pyrazol-5-yl]-3-(naphthalen-1-yl)urea]
23 | 0.34 µM | CC(Cc1cccc(-n2nc(-c3cccs3)cc2NC(=O)Nc2cccc(Cl)c2Cl)c1)C(=O)O (centres unmarked) [Example 490, 3-(3-(5-(3-(2,3-dichlorophenyl)ureido)-3-(thiophen-2-yl)-1H-pyrazol-1-yl)phenyl)-2-methylpropanoic acid]
24 | 0.075 µM | CC(C)(C)c1cc(NC(=O)Nc2ccc(Cl)cc2)n(-c2ccc(OCc3ccccc3)cc2)n1 [Example 418, 1-(3-t-butyl-1-(4-(benzyloxy)phenyl)-1H-pyrazol-5-yl)-3-(4-chlorophenyl)urea]
25 | 0.114 µM | CC(C)(C)c1cc(NC(=O)Nc2ccc(Cl)cc2)n(-c2cccc(CNC(=O)N3CCOCC3)c2)n1 [Example 386, 1-(3-t-butyl-1-{3-[(morpholine-4-carboxamido)methyl]phenyl}-1H-pyrazol-5-yl)-3-(4-chlorophenyl)urea]
26 | 0.942 µM | O=C(O)Cc1cccc(-n2nc(-c3ccccc3)cc2NC(=O)Nc2cccc(Cl)c2Cl)c1 [Example 430, 2-(3-(5-(3-(2,3-dichlorophenyl)ureido)-3-phenyl-1H-pyrazol-1-yl)phenyl)acetic acid]
27 | 0.057 µM | O=C(Nc1cccc(Cl)c1Cl)Nc1cc(-c2cccs2)nn1-c1cccc(CO)c1 [Example 486, 1-(2,3-dichlorophenyl)-3-(1-(3-(hydroxymethyl)phenyl)-3-(thiophen-2-yl)-1H-pyrazol-5-yl)urea]
28 | 0.007 µM | CC(C)(C)c1cc(NC(=O)Nc2cccc(Cl)c2Cl)n(-c2ccc(C(=O)O)cc2)n1 [Example 365, 4{-3-t-butyl-5-[3-(2,3-dichlorophenyl)ureido]-1H-pyrazol-1-yl}benzoic acid]
29 | 0.14 µM | CCOC(=O)CCc1cccc(-n2nc(C)cc2NC(=O)Nc2ccc(Cl)cc2)c1 [Example 428, 3-(3-{5-[3-(4-chloro-phenyl)-ureido)-3-methyl-pyrazol-1-yl}-phenyl)-propionic acid ethyl ester]
